In paper PMC10792358 (Clinical Cancer Research, 2023):

Columns and labels:
[1] = tested on: HR+/HER2− breast cancer with PIK3CA mutations; conditions: patients with PIK3CA mutations, few treated with CDK4/6i; cited from earlier work
Plasma pharmacokinetics = conditions: data not shown

effect of molibresib on fulvestrant pharmacokinetics (Plasma pharmacokinetics; fulvestrant predose concentrations): lack of effect
predose concentrations (Plasma pharmacokinetics; fulvestrant with molibresib, compared with ref 18): within the range anticipated
Compound: C[C@]12CC[C@@H]3c4ccc(O)cc4C[C@@H](CCCCCCCCC[S+]([O-])CCCC(F)(F)C(F)(F)F)[C@H]3[C@@H]1CC[C@@H]2O (stereo partly drawn) [fulvestrant]
ORR [1]: 12.8%
